Experimental data taken from ChEMBL document CHEMBL1147476, “Synthesis and evaluation of aminophosphinic acid derivatives as inhibitors of renal dipeptidase” (Bioorg Med Chem Lett, 2004).

These molecules were tested against T1, Dipeptidase 1 (Homo sapiens, UniProt P16444) (assay: Concentration required to inhibit renal dipeptidase (RDP) by 50% in crude lysates prepared from human colon cancer).
T1 sequence (P16444 whole entry): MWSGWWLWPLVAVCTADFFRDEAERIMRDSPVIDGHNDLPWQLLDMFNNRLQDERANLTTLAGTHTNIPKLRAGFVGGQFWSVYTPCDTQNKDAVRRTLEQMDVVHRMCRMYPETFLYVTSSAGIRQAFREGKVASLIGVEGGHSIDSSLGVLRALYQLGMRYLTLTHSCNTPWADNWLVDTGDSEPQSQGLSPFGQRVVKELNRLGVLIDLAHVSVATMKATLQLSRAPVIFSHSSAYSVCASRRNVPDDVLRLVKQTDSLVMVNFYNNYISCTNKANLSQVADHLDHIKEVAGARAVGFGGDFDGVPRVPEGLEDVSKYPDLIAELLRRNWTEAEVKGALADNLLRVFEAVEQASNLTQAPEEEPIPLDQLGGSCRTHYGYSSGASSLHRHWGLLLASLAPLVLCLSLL
`NC(CC1CCCCC1)P(=O)(O)C/C(=C\c1ccc(Br)cc1)C(=O)O` (centres undefined) gave an IC50 of 6 nM. `NC(CC1CCCCC1)P(=O)(O)C/C(=C/c1cccc(I)c1)C(=O)O` (centres undefined) showed an IC50 of 250 nM. In the case of `NC(CC1CCCCC1)P(=O)(O)C/C(=C/c1ccc(F)c(Br)c1)C(=O)O` (centres undefined), the IC50 is reported as 3000 nM. Molecule `NC(CC1CCCCC1)P(=O)(O)C/C(=C/c1ccc(F)cc1)C(=O)O` (centres undefined) has an IC50 of 15 nM. In the case of `NC(CC1CCCCC1)P(=O)(O)C/C(=C/c1ccc(Cl)c(Cl)c1)C(=O)O` (centres undefined), the IC50 is reported as 200 nM. In the case of `Nc1ccc(/C=C(\CP(=O)(O)C(N)CC2CCCCC2)C(=O)O)cc1` (centres undefined), the IC50 is reported as 70 nM. Molecule `NC(CC1CCCCC1)P(=O)(O)C/C(=C/c1ccc(F)c(Cl)c1)C(=O)O` (centres undefined) has an IC50 of 350 nM. For `NC(CC1CCCCC1)P(=O)(O)C/C(=C\c1ccc(F)cc1)C(=O)O` (centres undefined), the IC50 was 5 nM. With `Nc1ccc(/C=C(/CP(=O)(O)C(N)CC2CCCCC2)C(=O)O)cc1` (centres undefined) the IC50 was 150 nM. `NC(CC1CCCCC1)P(=O)(O)C/C(=C/c1ccc(Br)cc1)C(=O)O` (centres undefined) showed an IC50 of 30 nM. `NC(CC1CCCCC1)P(=O)(O)C/C(=C\c1cccc(I)c1)C(=O)O` (centres undefined) showed an IC50 of 45 nM. For `NC(CC1CCCCC1)P(=O)(O)C/C(=C\c1ccccc1I)C(=O)O` (centres undefined), the IC50 was 100 nM. `NC(CC1CCCCC1)P(=O)(O)C/C(=C\c1ccc(I)cc1)C(=O)O` (centres undefined) showed an IC50 of 8 nM. Work on `NC(CC1CCCCC1)P(=O)(O)C/C(=C/c1ccccc1I)C(=O)O` (centres undefined) yielded an IC50 of 1000 nM. `NC(CC1CCCCC1)P(=O)(O)C/C(=C\c1ccc(F)c(Br)c1)C(=O)O` (centres undefined) showed an IC50 of 40 nM. Molecule `NC(CC1CCCCC1)P(=O)(O)C/C(=C\c1ccc(Cl)c(Cl)c1)C(=O)O` (centres undefined) has an IC50 of 20 nM. `NC(CC1CCCCC1)P(=O)(O)C/C(=C\c1ccc(F)c(Cl)c1)C(=O)O` (centres undefined) was tested, and the IC50 was 30 nM. For `NC(CC1CCCCC1)P(=O)(O)C/C(=C/c1ccc(I)cc1)C(=O)O` (centres undefined), the IC50 was 25 nM. With `NC(CC1CCCCC1)P(=O)(O)C/C(=C/c1ccc(C(F)(F)F)cc1)C(=O)O` (centres undefined) the IC50 was 200 nM.
